Experimental data: patent US4973708A, “3-hydroxy-N-methylpyrrolidone and preparation thereof” (University of Kentucky Research Foundation, priority 1988, dated 1990)

How the values were obtained:
[1] = type: in vitro ADME, human
Method: Standard Franz diffusion cells (15 mm i.d., o-ring design) were manufactured by Crown Glass Inc., Somerville, N.J. The cell caps were modified with ground glass joints to fit 14/20 ground glass stoppers. A Franz diffusion cell drive console F-DCD-9 was also manufactured by Crown Glass. A Vandercamp 2500 recirculating water bath was used to maintain the cells at 37° C. Split thickness human allograph tissues (0.015 in. thickness), thigh back area, was obtained from the Tissue Transplant Bank, St. Agnes Medical Center, Philadelphia, Pa. Samples were counted in a Packard Auto-Gamma Scintillation Spectrometer.
Sterile Saline (0.9% Sodium Chloride USP, Travenol, NDC 0338-0049-04 lot co56747), Albumin (Bovine, fraction v, Sigma A-4503 lot 127F-0877), N-Methyl-2-pyrrolidone (Aldrich 99+ % Cat No. 24,279-9 lot 04402TP), Neomycin Sulfate (Sigma N-1876 lot 66F-0151), absolute ethanol (Midwest Solvents Company of Illinois).
Human allograph tissue, which had been stored at -70° C., was thawed and immediately mounted in a Franz type diffusion cell. The receptor chamber was filled with normal saline containing 2% albumin and 0.05% neomycin sulfate. Each cell was maintained at 37° C. and stirred at 600 rpm. After the cells had been allowed to equilibrate for 4 to 6 hours, 200 ul of a saturated ethanolic solution of 5-chloro-8-hydroxy-7-[^125I]-iodoquinoline (approx. 70 uCi, 0.44 mg) was applied to the donor side of each cell. This was immediately followed by either 200 μl of absolute ethanol for the control cells, 200 μl of 50% (w/v 3-hydroxy-N-methylpyrrolidone in ethanol or an equimolar ethanolic solution of N-methylpyrrolidone (43.1% w/v). The cells were then capped with ground glass stoppers. At various time intervals, over an 80-100 hour period, the entire contents of the receptor chamber was removed with a 10 cc syringe and placed into a vial. The receptor chamber was then refilled with fresh solution. After the last collection these vials were placed in a well-type gamma counter and counted for I-125 activity.
At the time of dosing 200 μl of the saturated 5-chloro-8-hydroxy-7-[^125 I]-iodoquinoline solution was placed into separate vials to calculate the amount of activity (dose) applied to the skin.
In this example, 3-hydroxy-N-methyl pyrrolidone was tested for its use as a percutaneous penetration enhancer. In vitro studies were carried out using Franz type diffusion cells. The penetration enhancing properties of 3-hydroxy-N-methylpyrrolidone was compared to N-methyl pyrrolidone, a compound known to enhance the penetration of drugs through the skin.
For these in vitro studies radioiodinated 5-chloro-8-hydroxy-7-iodoquinoline was chosen as a model drug. This drug, known as Clioquinol USP, is currently marketed by Ciba (Ciba Pharmaceutical Company, 556 Morris Avenue, Summit, N.J. 07901), as a topical antibacterial/antifungal agent trade named Vioform™. […] This radiolabeled marker is conveniently used to follow the penetration of the drug through the skin.
Franz diffusion cells are designed to mimic in vivo conditions. A finite dose of drug is applied to the stratum corneum side of the skin and penetration is followed by analyzing for the drug in the receptor phase underneath. In these studies the amount of drug crossing the skin barrier is estimated by counting total radioactivity in the receptor phase.
In a preliminary study, the transdermal absorption of Clioquinol was evaluated in the presence of 3-hydroxy-N-methylpyrrolidone, N-methylpyrrolidone, and in the absence of enhancer. An ethanolic solution of [I-131]-Clioquinol was applied to 3 cells followed by either ethanol (control), 50% 3-hydroxy-N-methylpyrrolidone in ethanol or an equimolar solution of N-methylpyrrolidone. In FIG. 1, the percent penetration of 5-chloro-8-hydroxy-7-[^131 I]-iodoquinoline through human skin is illustrated. The amount of 5-chloro-8-hydroxy-7-[^131 I]-iodoquinolineactivity applied is equal to 100%.
The study was repeated using I-125 labeled Clioquinol. […]

[2] = cited from earlier work
[3] = Metabolism of N-methylpyrrolidone, metabolite excreted in urine
Text: As pointed out above, a penetration enhancer is a chemical compound which, when included in a transdermal formulation, affects the skin of a human by increasing permeability of the skin to allow more of a drug to be absorbed in a shorter period of time. The penetration enhancer is normally contained in a formulation, called a transdermal composition, in combination with the appropriate drug to be delivered and other known components of the formulation. […] As mentioned herein, N-methylpyrrolidone is a known penetration enhancer. In studies leading to this invention using the prior art compound, N-methyl-2-pyrrolidone, it was discovered that a major metabolite of N-methylpyrrolidone which is excreted in the urine is 3-hydroxy-N-methyl-2-pyrrolidone. […] Further, 3-hydroxy-N-methylpyrrolidone is a "softer" xenobiotic to the body because no energy will be expended in metabolic processes after the compound's absorption into the systemic circulation. Also, in view of the apparent safety of N-methylpyrrolidone, its major metabolite, 3-hydroxy-N-methylpyrrolidone, would be expected to have an even lower toxicity.

[4] = animal and human experiments; cited from earlier work

Structure (SMILES) | amount of Clioquinol penetrating the skin, times greater than with N-methylpyrrolidone [1] | amount of Clioquinol penetrating the skin, times higher than the control [1] | amount of I-131 Clioquinol penetrated, times greater than the control [1] | amount of I-131 Clioquinol penetrated, times more than with N-methylpyrrolidone [1] | effectiveness in enhancing the absorption of drugs (conclusion in words) [1] | percent of Clioquinol absorbed in the presence of enhancer [1] | percent penetration of I-125 labeled Clioquinol through human skin (absorbed), with enhancer [1] | percent penetration of [I-131]-Clioquinol through human skin (absorbed), with enhancer [1] | relative order of enhancement of Clioquinol penetration [1] | percent penetration of I-125 labeled Clioquinol through human skin (absorbed), control [1] | percent penetration of [I-131]-Clioquinol through human skin (absorbed), control [1] | time in which the same amount of Clioquinol was absorbed, absence of enhancer [1] | absorption through the skin ([2]; reason for choice as model drug) | major metabolite excreted in the urine [3] | irritation or sensitization potential [4] | penetration enhancement ([2]; literature)
CN1CCC(O)C1=O (stereo not shown) [3-hydroxy-N-methylpyrrolidone, 3-hydroxy-N-methyl-2-pyrrolidone] | 1.3 times | 1.8 times | 3.9 times | 1.5 times | more effective than N-methylpyrrolidone | 19% | 40.0% | 10.2% | 3-hydroxy-N-methylpyrrolone >N-methylpyrrolone>control |  |  |  |  |  |  | 
Oc1c(I)cc(Cl)c2cccnc12 [Clioquinol, 5-chloro-8-hydroxy-7-iodoquinoline] |  |  |  |  |  |  |  |  |  | 19.5% | 2.6% | 85 h | absorbed very slowly through the skin |  |  | 
CN1CCCC1=O [N-methylpyrrolidone, N-methyl-2-pyrrolidone] |  |  |  |  |  |  | 27.8% | 6.5% | N-methylpyrrolone>control |  |  |  |  | 3-hydroxy-N-methyl-2-pyrrolidone | very little irritation or sensitization potential | effective penetration enhancer
